Values after ≈ are worked out from the molar mass of the structure shown.
Legend:
[1] = system: HCT116 colon cancer cells; test: Apoptosis detection, DAPI/TUNEL staining, HCT116; format: cell-based, human; conditions: 24 h
Experimental: (§1) FIG. 3B: The apoptotic index was determined as the DAPI-stained TUNEL-positive cell number counted. Values are mean±S.E.M. of three experiments, each performed in triplicate. *P<0.05 indicates statistically significant differences from the untreated group.
(§2) Apoptosis assay was first performed by using 4,6-diamino-2-phenylindole (DAPI) staining. SW620 and HCT116 human colon cancer cells were cultured in the absence or presence of increasing concentrations of thiacremonone, and induction of apoptotic cell death was evaluated after 24 h. Apoptotic cells were determined by the morphological changes after DAPI staining under fluorescence microscopic observation (DAS microscope, 100× or 200×: Leica Microsystems, Inc., Deefield, Ill., USA). Apoptosis was also evaluated by TUNEL staining assay. In short, cells were cultured on 8-chamber slides. After treatment with thiacremonone (30-150 μg/ml) for 24 h, the cells were washed twice with PBS and fixed by incubation in 4% paraformaldehyde in PBS for 1 h at room temperature. TUNEL assays were performed by using the in situ Cell Death Detection Kit (Roche Diagonostics GmbH, Mannheim, Germany) according to manufacturer's instructions. Total number of cells in a given area was determined by using DAPI and TUNEL staining. The apoptotic index was determined as the number of DAPIstained TUNEL-positive cells divided by the total cell number counted ×100.

[2] = system: HCT116 colon cancer cells; test: Western blot of apoptosis regulatory proteins, HCT116; format: cell-based, human; conditions: HCT116, 30-150 μg/ml, 24 h
Experimental: (§3) The cells were treated with different concentrations (30-150 μg/ml) of thiacremonone at 37° C. for 24 h. Equal amounts of total proteins (50 μg/lane) were subjected to 12% SDS-PAGE. Expressions of Bax, cleaved caspase-3, cleaved PARP, Bcl-2, cIAP1/2, XIAP, and β-actin were detected by western blotting using specific antibodies. β-Actin protein was used an internal control. Panel a: SW620 colon cancer cells. Panel b: HCT116 colon cancer cells. Each band is representative of three independent experiments.
(§4) Cultured cells were washed twice with 1×PBS, followed by the addition of 1 ml of PBS, and the cells were scraped into a cold Eppendorf tube. Cells were homogenized with lysis buffer [50 mM Tris pH 8.0, 150 mM NaCl, 0.02% sodium azide, 0.2% SDS, 1 mM PMFS, 10 μl/ml aprotinin, 1% igapel 630 (Sigma-Aldrich, St. Louis, Mo., USA), 10 mM NaF, 0.5 mM EDTA, 0.1 mM EGTA, and 0.5% sodium deoxycholate] and centrifuged at 23,000×g for 15 min. The protein concentration was measured by the Bradford method (Bio-Rad Protein Assay; Bio-Rad Laboratories Inc., Hercules, Calif., USA), and equal amount of proteins (50 μg) were separated on a SDS/12%-polyacrylamide gel and then transferred to a Hybond ECL nitrocellulose membrane (Amersham Pharmacia Biotech Inc., Piscataway, N.J., USA). Blots were blocked for 2 h at room temperature with 5% (w/v) non-fat dried milk in Tris-buffered saline [10 mM Tris (pH 8.0) and 150 mM NaCl] solution containing 0.05% tween-20. […] Immunoreactive proteins were detected with the ECL Western blotting detection system. The relative density of the protein bands was scanned by densitometry using MyImage (SLB) and quantified by Labworks 4.0 software (UVP Inc.).

[3] = system: NF-κB; test: NF-κB luciferase reporter assay (pNF-κB-Luc), SW620; format: cell-based, human; conditions: SW620, 30-150 μg/ml, 8 h
Experimental: (§5) FIG. 1B: Colon cancer cells were transfected with pNF-κB-Luc plasmid (5×NF-κB) and then activated with TNF-α (150 U/ml) alone or TNF-α plus different concentrations (30-150 μg/ml) of thiacremonone at 37° C. in both SW620 (panel a and b) and HCT116 (panel c and d) colon cancer cells, and then the luciferase activity was determined. All values represent mean±S.D. of three independent experiments performed in triplicate. RLU is relative to luciferase activity in transfected unstimulated cells. *P<0.05 indicates statistically significant differences from the TNF-α-treated group.
(§6) SW620 and HCT116 human colon cells (2.5×10^5 cells/cm^2) were plated in 24-well plates and transiently transfected with pNF-κB-Luc plasmid (5×NF-κB; Stratagene, La Jolla, Calif., USA) using a mixture of plasmid and lipofectAMINE PLUS in OPTI-MEN according to manufacturer's specifications (Invitrogen, Carlsbad, Calif., USA). The transfected cells were treated with tumor necrosis factor-α (TNF-α) (10 ng/ml) or TPA (50 nM) and different concentrations (30-150 μg/ml) of thiacremonone for 8 h. Luciferase activity was measured by using the luciferase assay kit (Promega, Madison, Wis., USA) according to the manufacturer's instructions (WinGlow, Bad Wildbad, Germany).

[4] = target: T1, NF-κB (Homo sapiens, UniProt Q04206); test: Gel electromobility shift assay (EMSA), NF-κB DNA binding activity, SW620; format: cell-based; conditions: SW620, 30-150 μg/ml, 1 h
T1 construct: endogenous in cells; host or cells: SW620 and HCT116 human colon cancer cells (ATCC)
Experimental: (§7) FIG. 1A: Nuclear extract from SW620 (panel a) and HCT116 (panel b) colon cancer cells treated with thiacremonone (30-150 μg/ml) for 1 h was incubated in binding reactions of ^32P-end-labeled oligonucleotide containing the κB sequence. The activation of NF-κB was investigated using EMSA as described in Materials and Methods. For competition assays, nuclear extracts from cells treated with TNF-α were incubated for 1 h before EMSA with unlabled NF-κB oligonucleotide or labeled NF-κB oligonucleotide. For supershift assays, nuclear extracts from cells treated with TNF-α were incubated for 1 h before EMSA with specific antibodies against the p50 and p65 NF-κB isoforms. SS indicates supershift assay using p65 antibody (panel c). Quantification of band intensities from three independent experimental results performed by densitometry (Imaging System) and the value under each band indicated as fold difference from the untreated control group.
(§8) Gel shift assay was performed according to the manufacturer's recommendations (Promega, Madison, Wis., USA). […] The relative density of the DNA-protein binding bands was scanned by densitometry using MyImage (SLB, Seoul, Korea), and quantified by Labworks 4.0 software (UVP Inc., Upland, Calif., USA).

[5] = system: SW620 colon cancer cells; test: Western blot of apoptosis regulatory proteins, SW620; format: cell-based, human; conditions: SW620, 30-150 μg/ml, 24 h
Experimental: as §3, §4

[6] = system: HCT116 colon cancer cells; test: Cell viability / growth, CCK-8 assay, HCT116; format: cell-based; conditions: Homo sapiens, HCT-116, HCT116, 48 h, read-out: IC50 of cell growth inhibition
Experimental: (§9) Panel b of FIGS. 2A-2C: Cell viability was determined by CCK-8 assay as described in Materials and Methods. SW620 (FIG. 2A) and HCT116 (FIG. 2B) colon cancer cells as well as normal cells (Caco-2) (FIG. 2C) were treated with various doses (30-150 μg/ml) of thiacremonone for different times (12-48 h). Values are each the mean±S.D. of three experiments, each performed in triplicate.
(§10) SW620 and HCT116 colon cancer cells were plated at a density of 10^4 cells/well in 96-well plates per 100 μl medium. To determine the appropriate concentration that is not cytotoxic to the cells, the cytotoxic effect was evaluated in cells cultured for 12, 24, 36, and 48 h using the cell counting kit-8 assay kit according to the manufacturer's instructions (Dojindo, Gaithersburg, Md., USA). Briefly, 10 μl of the CCK-8 solution was added to cells cultured for the designated time. The plates were incubated for 1-4 h in the incubator. The resulting color was assayed at […] using a microplate absorbance reader (Sunrise, Tecan, Switzerland). Each assay was carried out in triplicate.

[7] = system: normal colon Caco-2 cells; test: Cell viability, CCK-8 assay, normal cells; format: cell-based; conditions: Caco-2, 30-150 μg/ml, 12-48 h
Experimental: as §9, §10

[8] = target: T1, NF-κB; test: Gel electromobility shift assay (EMSA), NF-κB DNA binding activity, HCT116; format: cell-based; conditions: HCT116, 30-150 μg/ml, 1 h
Experimental: as §7, §8

[9] = system: NF-κB; test: NF-κB luciferase reporter assay (pNF-κB-Luc), HCT116; format: cell-based, human; conditions: HCT116, 30-150 μg/ml, 8 h
Experimental: as §5, §6

[10] = system: SW620 xenograft; test: SW620 colon xenograft in nude mice; format: in vivo; conditions: for tumor volume, % of sham control group: day 31
Text: To elucidate the anticancer effect of thiacremonone in vivo, the tumor growth on colon xenograft bearing nude mice following thiacremonone treatments were investigated. In SW620 xenograft studies, thiacremonone was administrated intraperitoneally twice per week for 4 weeks to mice with tumors ranging from 100 to 300 mm3 of tumor volume. The mice were weighted twice per week. The change of body weights between saline and thiacremonone-administrated mice (n=10) was not different during the experiment.
FIG. 5 represents the relative tumor growth delay measured after treatment of thiacremonone (240 and 360 mg/kg for four weeks, n=10) in comparison with the sham control group (saline).

[11] = system: SW620 colon cancer cells; test: Cell viability / growth, CCK-8 assay, SW620; format: cell-based; conditions: Homo sapiens, SW-620, read-out: IC50 of cell growth inhibition, heading: IC50 of cell growth inhibition, SW620, 48 h
Experimental: as §9, §10

[12] = system: SW620 colon cancer cells; test: Apoptosis detection, DAPI/TUNEL staining, SW620; format: cell-based, human; conditions: 24 h
Experimental: as §1, §2

T1 sequence (Q04206 whole entry): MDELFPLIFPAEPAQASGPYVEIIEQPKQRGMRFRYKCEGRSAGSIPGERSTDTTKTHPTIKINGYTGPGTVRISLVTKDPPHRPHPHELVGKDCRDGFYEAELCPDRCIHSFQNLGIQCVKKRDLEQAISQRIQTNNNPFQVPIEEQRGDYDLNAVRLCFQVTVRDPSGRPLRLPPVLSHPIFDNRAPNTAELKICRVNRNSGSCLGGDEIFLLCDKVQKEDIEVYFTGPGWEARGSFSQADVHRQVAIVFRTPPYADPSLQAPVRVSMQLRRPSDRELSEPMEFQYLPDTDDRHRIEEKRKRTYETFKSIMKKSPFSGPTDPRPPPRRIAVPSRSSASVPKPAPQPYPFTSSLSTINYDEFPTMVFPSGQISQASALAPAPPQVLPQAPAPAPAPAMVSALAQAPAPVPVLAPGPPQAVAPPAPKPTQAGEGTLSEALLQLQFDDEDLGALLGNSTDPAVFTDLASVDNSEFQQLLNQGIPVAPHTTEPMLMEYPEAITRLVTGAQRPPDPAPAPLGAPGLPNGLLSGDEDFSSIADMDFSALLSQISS
T1 sequence (P19838 1-433 partner limits assumed): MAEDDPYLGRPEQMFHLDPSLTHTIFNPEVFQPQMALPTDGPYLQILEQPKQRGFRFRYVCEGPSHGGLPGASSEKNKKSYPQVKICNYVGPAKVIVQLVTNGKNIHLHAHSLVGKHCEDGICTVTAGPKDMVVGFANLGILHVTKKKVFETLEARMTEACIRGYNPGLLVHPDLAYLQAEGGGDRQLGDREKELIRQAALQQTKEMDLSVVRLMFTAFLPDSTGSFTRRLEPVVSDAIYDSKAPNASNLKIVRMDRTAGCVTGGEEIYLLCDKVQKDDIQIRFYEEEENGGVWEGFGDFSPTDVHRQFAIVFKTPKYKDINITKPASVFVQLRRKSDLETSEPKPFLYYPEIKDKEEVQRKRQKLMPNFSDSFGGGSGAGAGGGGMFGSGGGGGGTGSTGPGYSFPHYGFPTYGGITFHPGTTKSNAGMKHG

CC1=C(O)C(=O)C(C)(O)S1 (centres unmarked) [thiacremonone, 2,4-dihydroxy-2,5-dimethyl-thiophene-3-one] showed an apoptotic cell number ([1]; HCT116, 30 μg/ml) of 0%, an apoptotic cell number ([1]; HCT116, 60 μg/ml) of 0% and an apoptotic cell number ([1]; HCT116, 90 μg/ml) of 29%. The apoptotic cell number ([1]; HCT116, 120 μg/ml) was 95%, the apoptotic cell number ([1]; HCT116, 150 μg/ml) was 98% and the “Expressions of apoptotic proteins Bax, cleaved caspases 3, cleaved PARP” value [2] was “increased”. For the same molecule, the “expressions of antiapoptotic protein Bcl-2, cIAP1/2, XIAP and cyclin D1” value [2] was “decreased”, the “iNOS and COX-2 expression” value [2] was “inhibited the expressions dose-dependently” and the “TNF-α and TPA induced NF-κB luciferase activity” value [3] was “inhibited TNF-α and TPA induced NF-κB luciferase activity dose-dependently”. The “DNA binding activity of NF-κB” value [4] was “decreased DNA binding activity of NF-κB in a dose-dependent manner”, the “Expressions of apoptotic proteins Bax, cleaved caspases 3, cleaved PARP” value [5] was “increased” and the “expressions of antiapoptotic protein Bcl-2, cIAP1/2, XIAP and cyclin D1” value [5] was “decreased”. For the same molecule, the “iNOS and COX-2 expression” value [5] was “inhibited the expressions dose-dependently”, the IC50 [6] was 130 µg/mL (≈ 812 µM) and the cytotoxic effect [7] was “no cytotoxic effect”. For the same molecule, the “DNA binding activity of NF-κB” value [8] was “decreased DNA binding activity of NF-κB in a dose-dependent manner”, the “TNF-α and TPA induced NF-κB luciferase activity” value [9] was “inhibited TNF-α and TPA induced NF-κB luciferase activity dose-dependently” and the “tumor volume, % of sham control group” value ([10]; 240 mg/kg intraperitoneally twice per week for 4 weeks) was 92.5%. For the same molecule, the “tumor volume, % of sham control group” value ([10]; 360 mg/kg intraperitoneally twice per week for 4 weeks) was 59.1%, the “change of body weights versus saline” value ([10]; intraperitoneally twice per week for 4 weeks, nude mice) was “not different” and the IC50 [11] was 105 µg/mL (≈ 655 µM). The “apoptotic cell number (DAPI-positive TUNEL-stained cells)” value ([12]; SW620, 30 μg/ml) was 0%, the “apoptotic cell number (DAPI-positive TUNEL-stained cells)” value ([12]; SW620, 60 μg/ml) was 0% and the “apoptotic cell number (DAPI-positive TUNEL-stained cells)” value ([12]; SW620, 90 μg/ml) was 11%. For the same molecule, the “apoptotic cell number (DAPI-positive TUNEL-stained cells)” value ([12]; SW620, 120 μg/ml) was 25% and the “apoptotic cell number (DAPI-positive TUNEL-stained cells)” value ([12]; SW620, 150 μg/ml) was 97%.
